Measured values as given in US20050054587A1, “Novel therapeutic indication of azithromycin for treatment of non-infective inflamatory diseases” (priority 2001, published 2005).

System: β-glucuronidase
Assay: β-glucuronidase activity in serum, fluorimetric
Format: in vivo, human
Conditions: healthy volunteers; for β-glucuronidase (serum): azithromycin 3×500 mg, baseline 2.88 ± 0.7
Protocol: A trial on healthy volunteers was conducted and the influence of azithromycin given in a dosage of 3×500 mg on selected inflammation-relevant parameters was followed up.
Each subject received two standard 250 mg capsules of azithromycin (Sumamed®, PLIVA Zagreb) on three consecutive days. Immediately before the treatment and 2 h and 30 min, 24 h and 28 days after the third and last dose of azithromycin blood was collected from the cubital vein into EDTA-containing tubes. Aliquots were taken for cell counting, smear preparation, polymorphonuclear cell and serum isolation.
Glycosidases are enzymes that catalyse hydrolysis of glycosidic bonds of oligosacharides and other glycosides. They are specific to the glycosidic part of substrate molecule. N-acetyl-β-D-glucosaminidase (NAGA) and β-glucuronidase are such enzymes. They are lysosomal enzymes, both located in azurophilic (primary; peroxidase-positive) granules of neutrophils. Since degranulation of neutrophils is present during inflammation, many authors choose these enzymes as markers of degranulation and for estimation of neutrophil reactivity. The catalytic concentration of both enzymes in serum and in neutrophil lysates was determined using the fluorimetric method described by O'Brien et al. (New Engl. J. Med. (1970) 283: 15-20) for NAGA and Glaser & Sly (J. Lab. Clin. Med. (1973) 82: 969) for β-glucuronidase.

CC[C@H]1OC(=O)[C@H](C)[C@@H](O[C@H]2C[C@@](C)(OC)[C@@H](O)[C@H](C)O2)[C@H](C)[C@@H](O[C@@H]2O[C@H](C)C[C@H](N(C)C)[C@H]2O)[C@](C)(O)C[C@@H](C)CN(C)[C@H](C)[C@@H](O)[C@]1(C)O [azithromycin, 9-deoxo-9-dihydro-9a-methyl-9a-aza-9a-homoerythromycin A]
change of activity of β-glucuronidase in serum (3×500 mg, during the first 24 hours after the last dose): did not show any changes | β-glucuronidase (serum) (2 h and 30 min after last dose): 3.01 ± 0.6 µmol/L/min | β-glucuronidase (serum) (24 hours after last dose): 2.95 ± 0.5 µmol/L/min | β-glucuronidase (serum) (28 days after last dose): 3.93 ± 1.2 µmol/L/min
